Bridge positions count the residues as written; N and C are the ends. Side chains are listed from the residue outwards. Peptide text beside a SMILES is read from it. * marks the point of attachment. Butanoyl(4-(4-I-phenyl)) = O=C(CCCc1ccc(I)cc1)*; PEG2 = NCCOCCOCCC(=O)O
How the values were obtained:
[1] = Plasma stability, human plasma; format: in vitro ADME
[2] = Plasma stability, mouse plasma; format: in vitro ADME
ADORA2A = ADORA2A (Homo sapiens, UniProt P29274); experiment: Safetyscan47 GPCR Calcium Flux, Agonist; format: cell-based; details: for Emax: read-out: Max Response
AVPR1A [3] = biological target: T1, AVPR1A (Homo sapiens, UniProt P37288); experiment: Safetyscan47 GPCR Calcium Flux, Agonist; format: cell-based; details: for Emax: read-out: Max Response
T1 sequence (P37288 whole entry): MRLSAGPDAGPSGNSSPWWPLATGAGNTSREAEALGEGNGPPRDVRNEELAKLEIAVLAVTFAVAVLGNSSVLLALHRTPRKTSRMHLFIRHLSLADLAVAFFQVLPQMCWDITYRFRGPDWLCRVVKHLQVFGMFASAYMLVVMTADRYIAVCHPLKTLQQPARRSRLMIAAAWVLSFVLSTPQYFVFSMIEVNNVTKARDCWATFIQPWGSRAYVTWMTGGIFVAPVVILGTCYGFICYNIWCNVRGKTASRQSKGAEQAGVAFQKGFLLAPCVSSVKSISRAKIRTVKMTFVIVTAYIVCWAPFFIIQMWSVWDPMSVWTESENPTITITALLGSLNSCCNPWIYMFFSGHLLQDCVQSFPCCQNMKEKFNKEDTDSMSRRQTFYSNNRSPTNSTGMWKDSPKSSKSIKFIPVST

CHRM3 = CHRM3 (Homo sapiens, UniProt P20309); experiment: Safetyscan47 GPCR Calcium Flux, Agonist; format: cell-based; details: for Emax: read-out: Max Response
CHRM3, sequence (P20309 whole entry): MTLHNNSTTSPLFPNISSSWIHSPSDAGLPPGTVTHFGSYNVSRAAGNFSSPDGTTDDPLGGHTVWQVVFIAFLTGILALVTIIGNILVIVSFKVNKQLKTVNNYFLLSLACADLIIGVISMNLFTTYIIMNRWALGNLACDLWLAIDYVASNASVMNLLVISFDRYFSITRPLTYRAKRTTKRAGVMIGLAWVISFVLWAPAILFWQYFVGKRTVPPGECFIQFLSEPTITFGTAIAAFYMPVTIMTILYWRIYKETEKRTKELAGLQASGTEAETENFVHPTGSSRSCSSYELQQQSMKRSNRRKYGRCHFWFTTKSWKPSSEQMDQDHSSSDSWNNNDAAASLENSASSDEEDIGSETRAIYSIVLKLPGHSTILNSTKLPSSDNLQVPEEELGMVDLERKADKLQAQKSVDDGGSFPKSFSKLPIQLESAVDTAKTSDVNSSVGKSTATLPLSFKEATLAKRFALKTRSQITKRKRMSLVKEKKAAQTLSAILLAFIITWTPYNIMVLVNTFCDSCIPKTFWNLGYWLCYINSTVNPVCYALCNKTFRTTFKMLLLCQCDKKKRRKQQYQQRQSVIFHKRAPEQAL

AVPR1A [4] = biological target: T1, AVPR1A; experiment: Safetyscan47 GPCR Calcium Flux, Antagonist; format: cell-based; details: for Emax: read-out: Max Response
ADRB1 = ADRB1 (Homo sapiens, UniProt P08588); experiment: Safetyscan47 GPCR cAMP, Agonist; format: cell-based; details: for Emax: read-out: Max Response
ADRB1, sequence (P08588 whole entry): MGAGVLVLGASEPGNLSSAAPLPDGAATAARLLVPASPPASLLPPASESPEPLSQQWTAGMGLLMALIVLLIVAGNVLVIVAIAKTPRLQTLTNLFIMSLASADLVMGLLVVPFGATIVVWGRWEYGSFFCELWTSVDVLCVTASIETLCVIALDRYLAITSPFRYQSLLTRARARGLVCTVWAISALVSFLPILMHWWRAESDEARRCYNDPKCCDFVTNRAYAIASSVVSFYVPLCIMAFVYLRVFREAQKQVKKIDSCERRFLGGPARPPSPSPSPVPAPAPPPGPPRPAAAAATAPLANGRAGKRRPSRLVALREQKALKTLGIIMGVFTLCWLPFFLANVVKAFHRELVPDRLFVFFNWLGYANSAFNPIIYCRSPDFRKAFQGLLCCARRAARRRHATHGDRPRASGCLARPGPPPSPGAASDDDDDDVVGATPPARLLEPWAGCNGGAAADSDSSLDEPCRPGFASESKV

CHRM2 = biological target: T2, CHRM2 (Homo sapiens, UniProt P08172); experiment: Safetyscan47 GPCR cAMP, Agonist; format: cell-based; details: for Emax: read-out: Max Response
T2 sequence (P08172 1-466): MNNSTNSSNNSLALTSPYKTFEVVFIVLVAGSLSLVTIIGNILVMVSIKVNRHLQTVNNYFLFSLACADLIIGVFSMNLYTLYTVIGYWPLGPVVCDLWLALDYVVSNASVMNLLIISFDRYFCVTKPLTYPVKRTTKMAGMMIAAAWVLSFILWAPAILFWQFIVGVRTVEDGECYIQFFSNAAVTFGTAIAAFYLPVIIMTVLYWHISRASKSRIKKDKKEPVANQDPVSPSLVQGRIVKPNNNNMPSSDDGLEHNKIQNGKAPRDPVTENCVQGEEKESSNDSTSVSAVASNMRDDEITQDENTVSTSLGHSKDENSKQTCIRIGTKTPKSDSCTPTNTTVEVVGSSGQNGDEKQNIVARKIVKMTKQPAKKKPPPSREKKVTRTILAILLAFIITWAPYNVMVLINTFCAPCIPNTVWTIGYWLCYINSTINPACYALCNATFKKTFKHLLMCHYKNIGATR

CNR2 = CNR2 (Homo sapiens, UniProt P34972); experiment: Safetyscan47 GPCR cAMP, Agonist; format: cell-based; details: for Emax: read-out: Max Response
CNR2, sequence (P34972 whole entry): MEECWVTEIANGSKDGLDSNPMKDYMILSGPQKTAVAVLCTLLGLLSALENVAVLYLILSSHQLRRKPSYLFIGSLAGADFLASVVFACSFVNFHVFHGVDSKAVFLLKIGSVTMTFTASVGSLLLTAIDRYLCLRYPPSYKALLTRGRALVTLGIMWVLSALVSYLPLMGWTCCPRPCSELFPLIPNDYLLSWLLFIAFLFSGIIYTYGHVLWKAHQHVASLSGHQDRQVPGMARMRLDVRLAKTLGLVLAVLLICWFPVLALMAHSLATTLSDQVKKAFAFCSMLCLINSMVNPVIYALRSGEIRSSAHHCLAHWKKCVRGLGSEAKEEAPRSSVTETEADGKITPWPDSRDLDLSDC

HTR1A = biological target: T3, HTR1A (Homo sapiens, UniProt P08908); experiment: Safetyscan47 GPCR cAMP, Agonist; format: cell-based; details: for Emax: read-out: Max Response
T3 sequence (P08908 1-422): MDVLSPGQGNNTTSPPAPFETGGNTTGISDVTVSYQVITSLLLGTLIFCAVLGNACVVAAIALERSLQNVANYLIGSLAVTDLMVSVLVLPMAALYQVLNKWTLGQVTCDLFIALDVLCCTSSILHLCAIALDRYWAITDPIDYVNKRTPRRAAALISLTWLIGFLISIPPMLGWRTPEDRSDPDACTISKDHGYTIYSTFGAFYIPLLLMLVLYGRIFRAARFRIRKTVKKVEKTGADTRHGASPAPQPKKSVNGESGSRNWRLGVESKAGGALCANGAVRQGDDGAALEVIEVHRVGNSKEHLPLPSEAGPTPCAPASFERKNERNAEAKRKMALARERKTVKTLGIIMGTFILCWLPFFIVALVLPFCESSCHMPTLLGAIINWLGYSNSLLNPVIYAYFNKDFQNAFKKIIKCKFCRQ

DRD2S = DRD2S (Homo sapiens, UniProt P14416); experiment: Safetyscan47 GPCR cAMP, Antagonist; format: cell-based; details: for Emax: read-out: Max Response
HRH2 = HRH2 (Homo sapiens, UniProt P25021); experiment: Safetyscan47 GPCR cAMP, Antagonist; format: cell-based; details: for Emax: read-out: Max Response
OPRM1 = OPRM1 (Homo sapiens, UniProt P35372); experiment: Safetyscan47 GPCR cAMP, Antagonist; format: cell-based; details: for Emax: OPRM1, read-out: Max Response
OPRM1, sequence (P35372 whole entry): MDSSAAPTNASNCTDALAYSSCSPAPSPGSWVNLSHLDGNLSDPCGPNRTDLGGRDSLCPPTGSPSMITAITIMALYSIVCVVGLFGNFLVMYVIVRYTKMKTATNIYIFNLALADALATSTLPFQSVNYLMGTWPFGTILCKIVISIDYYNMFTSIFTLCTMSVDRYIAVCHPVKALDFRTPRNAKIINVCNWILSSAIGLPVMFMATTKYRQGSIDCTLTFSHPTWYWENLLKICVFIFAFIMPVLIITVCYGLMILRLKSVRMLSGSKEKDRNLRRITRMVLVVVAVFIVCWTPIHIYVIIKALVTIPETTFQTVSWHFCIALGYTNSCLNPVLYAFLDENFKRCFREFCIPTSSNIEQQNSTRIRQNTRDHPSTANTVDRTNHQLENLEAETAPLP

nAChR(a4/b2) = nAChR(a4/b2) (Homo sapiens, UniProt P17787+P43681); experiment: Safetyscan47 Ion Channel, Blocker; format: cell-based; details: for Emax: read-out: Max Response
nAChR(a4/b2), sequence (P43681 29-627 limits assumed): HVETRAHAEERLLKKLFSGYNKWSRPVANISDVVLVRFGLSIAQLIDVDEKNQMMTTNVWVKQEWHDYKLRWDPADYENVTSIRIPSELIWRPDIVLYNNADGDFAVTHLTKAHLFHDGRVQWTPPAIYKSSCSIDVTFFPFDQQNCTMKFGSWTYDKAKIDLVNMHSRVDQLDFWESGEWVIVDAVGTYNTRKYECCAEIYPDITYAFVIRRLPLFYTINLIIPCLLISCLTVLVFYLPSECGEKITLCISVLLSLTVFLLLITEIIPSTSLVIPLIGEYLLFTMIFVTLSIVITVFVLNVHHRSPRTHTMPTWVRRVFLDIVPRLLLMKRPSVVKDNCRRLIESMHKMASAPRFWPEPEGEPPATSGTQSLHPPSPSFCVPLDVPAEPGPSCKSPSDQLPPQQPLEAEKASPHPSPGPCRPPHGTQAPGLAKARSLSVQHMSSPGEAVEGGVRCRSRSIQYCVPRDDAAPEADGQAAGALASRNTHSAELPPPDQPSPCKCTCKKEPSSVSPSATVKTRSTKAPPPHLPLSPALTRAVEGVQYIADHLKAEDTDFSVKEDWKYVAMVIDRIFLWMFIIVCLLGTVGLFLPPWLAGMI
nAChR(a4/b2), sequence (P17787 26-502): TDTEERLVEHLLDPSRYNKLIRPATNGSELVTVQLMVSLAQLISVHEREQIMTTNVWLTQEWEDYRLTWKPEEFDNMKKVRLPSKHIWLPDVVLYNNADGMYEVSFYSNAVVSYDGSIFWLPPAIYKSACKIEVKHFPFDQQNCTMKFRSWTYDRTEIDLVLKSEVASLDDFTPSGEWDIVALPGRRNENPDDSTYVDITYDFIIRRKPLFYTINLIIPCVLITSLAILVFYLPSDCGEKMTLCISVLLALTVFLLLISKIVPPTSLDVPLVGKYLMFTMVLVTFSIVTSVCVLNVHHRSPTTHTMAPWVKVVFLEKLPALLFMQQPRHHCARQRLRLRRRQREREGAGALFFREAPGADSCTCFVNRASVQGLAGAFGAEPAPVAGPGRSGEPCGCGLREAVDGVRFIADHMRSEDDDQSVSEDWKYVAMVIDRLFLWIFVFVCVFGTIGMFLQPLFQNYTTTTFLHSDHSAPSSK

NAV1.5 = NAV1.5 (Homo sapiens, UniProt Q14524); experiment: Safetyscan47 Ion Channel, Blocker; format: cell-based
NMDAR (1A/2B) = NMDAR (1A/2B) (Homo sapiens, UniProt Q05586+Q13224); experiment: Safetyscan47 Ion Channel, Opener; format: cell-based; details: for Emax: read-out: Max Response
NMDAR (1A/2B), sequence (Q13224 27-1484, other chains not shown): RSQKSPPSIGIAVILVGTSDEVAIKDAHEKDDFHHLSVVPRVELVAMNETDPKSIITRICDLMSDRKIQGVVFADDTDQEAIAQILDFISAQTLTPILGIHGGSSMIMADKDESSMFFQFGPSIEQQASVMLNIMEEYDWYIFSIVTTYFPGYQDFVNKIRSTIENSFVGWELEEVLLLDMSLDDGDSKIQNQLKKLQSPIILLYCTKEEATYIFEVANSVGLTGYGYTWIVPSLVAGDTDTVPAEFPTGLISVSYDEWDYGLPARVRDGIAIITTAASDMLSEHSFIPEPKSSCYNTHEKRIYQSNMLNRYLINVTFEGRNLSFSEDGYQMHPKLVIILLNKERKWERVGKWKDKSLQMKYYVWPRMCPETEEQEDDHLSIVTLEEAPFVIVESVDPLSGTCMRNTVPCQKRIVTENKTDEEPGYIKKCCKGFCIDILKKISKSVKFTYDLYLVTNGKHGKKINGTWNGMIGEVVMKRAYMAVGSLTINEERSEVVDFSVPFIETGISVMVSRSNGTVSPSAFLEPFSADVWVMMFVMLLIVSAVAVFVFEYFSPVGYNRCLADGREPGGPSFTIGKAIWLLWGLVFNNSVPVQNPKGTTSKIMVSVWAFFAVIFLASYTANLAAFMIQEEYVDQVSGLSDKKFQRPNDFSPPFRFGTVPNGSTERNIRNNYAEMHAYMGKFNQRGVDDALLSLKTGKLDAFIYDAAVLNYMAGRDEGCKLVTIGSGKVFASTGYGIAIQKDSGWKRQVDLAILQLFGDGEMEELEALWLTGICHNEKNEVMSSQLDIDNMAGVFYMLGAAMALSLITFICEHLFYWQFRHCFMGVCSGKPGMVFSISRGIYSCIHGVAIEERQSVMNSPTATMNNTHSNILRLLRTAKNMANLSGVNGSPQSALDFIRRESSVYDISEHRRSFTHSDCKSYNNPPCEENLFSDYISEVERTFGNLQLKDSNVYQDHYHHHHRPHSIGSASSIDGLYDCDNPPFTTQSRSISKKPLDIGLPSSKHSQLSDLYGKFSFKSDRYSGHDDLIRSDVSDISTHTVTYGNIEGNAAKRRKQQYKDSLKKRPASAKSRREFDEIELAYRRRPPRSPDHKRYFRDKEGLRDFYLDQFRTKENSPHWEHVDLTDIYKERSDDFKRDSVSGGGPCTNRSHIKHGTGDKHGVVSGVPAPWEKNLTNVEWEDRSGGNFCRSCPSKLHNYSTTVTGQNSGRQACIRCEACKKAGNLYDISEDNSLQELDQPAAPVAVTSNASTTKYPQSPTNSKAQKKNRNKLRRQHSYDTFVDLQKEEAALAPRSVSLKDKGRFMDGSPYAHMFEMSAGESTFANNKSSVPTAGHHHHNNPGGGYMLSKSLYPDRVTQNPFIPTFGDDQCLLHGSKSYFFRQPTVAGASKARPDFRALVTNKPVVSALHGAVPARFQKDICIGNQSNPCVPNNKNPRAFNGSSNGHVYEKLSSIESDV

COX2 = biological target: T4, COX2 (Homo sapiens, UniProt P35354); experiment: Safetyscan47 Non-Kinase Enzymes Enzymatic, Inhibitor; format: biochemical; details: for Emax: read-out: Max Response
T4 sequence (P35354 18-604): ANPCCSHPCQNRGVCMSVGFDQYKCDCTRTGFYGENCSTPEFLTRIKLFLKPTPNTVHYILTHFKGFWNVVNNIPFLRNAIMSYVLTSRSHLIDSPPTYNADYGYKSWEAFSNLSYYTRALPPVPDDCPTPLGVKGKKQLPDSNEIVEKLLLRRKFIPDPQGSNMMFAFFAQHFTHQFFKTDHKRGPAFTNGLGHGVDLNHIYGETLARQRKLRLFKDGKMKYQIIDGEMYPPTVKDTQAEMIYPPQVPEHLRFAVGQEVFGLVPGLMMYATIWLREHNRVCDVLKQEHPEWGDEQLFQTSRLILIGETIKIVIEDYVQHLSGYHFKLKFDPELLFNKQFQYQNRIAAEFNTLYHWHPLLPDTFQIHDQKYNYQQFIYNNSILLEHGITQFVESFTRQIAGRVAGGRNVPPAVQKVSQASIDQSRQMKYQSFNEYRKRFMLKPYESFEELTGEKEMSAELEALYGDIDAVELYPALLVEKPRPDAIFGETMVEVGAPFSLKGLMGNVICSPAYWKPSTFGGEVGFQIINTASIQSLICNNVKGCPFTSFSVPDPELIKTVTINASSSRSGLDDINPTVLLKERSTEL

Row | Structure (SMILES) | remaining at 0.5 h, 2 μM [1] | remaining at 4 h, 2 μM [1] | remaining at 0.5 h, 2 μM [2] | remaining at 4 h, 2 μM [2] | EC50 (ADORA2A) | Emax (ADORA2A) | EC50 (AVPR1A [3]) | Emax (AVPR1A [3]) | EC50 (CHRM3) | Emax (CHRM3) | IC50 (AVPR1A [4]) | Emax (AVPR1A [4]) | EC50 (ADRB1) | Emax (ADRB1) | EC50 (CHRM2) | Emax (CHRM2) | EC50 (CNR2) | Emax (CNR2) | EC50 (HTR1A) | Emax (HTR1A) | also measured
1 | CC[C@H](C)[C@H](NC(=O)[C@H](CC(C)C)NC(=O)[C@H](CC(=O)O)NC(=O)CNC(=O)[C@H](CCCNC(=N)N)NC(=O)[C@@H](NC(=O)[C@H](Cc1ccccc1)NC(=O)[C@H](Cc1ccc(O)cc1)NC(=O)[C@@H]1CCC(=O)NCC(=O)NCC(=O)N[C@@H](CCCNC(=N)N)C(=O)NCC(=O)N[C@@H](Cc2c[nH]cn2)C(=O)N[C@@H](C(C)C)C(=O)N2CCC[C@H]2C(=O)N1)C(C)C)C(=O)N[C@@H](CO)C(=O)N[C@@H](Cc1ccccc1)C(=O)N[C@@H](Cc1ccc(O)cc1)C(=O)N[C@@H](CCCCN)C(=O)O [lassotide 36] (GGRGHVPEYFVRGDLISFYK-OH; lactam N-8) | 91.9% | 93.2% | 88.7% | 56.1% | > 45 µM | 38.9% | > 45 µM | 1.03% | > 45 µM | 2.89% | > 45 µM | 13.3% | > 45 µM | 0% | > 45 µM | 7.71% | > 45 µM | 6.08% | > 45 µM | 0% | half-life at 2 μM [2]: 5.1 h; IC50 (DRD2S): > 45 µM; Emax (DRD2S): 0%; IC50 (HRH2): > 45 µM; Emax (HRH2): 2.58%; IC50 (OPRM1): > 45 µM; Emax (OPRM1): 0%; IC50 (nAChR(a4/b2)): > 45 µM; Emax (nAChR(a4/b2)): 2.98%; Emax (NAV1.5): 39.5%; IC50 (NAV1.5): > 45 µM; EC50 (NMDAR (1A/2B)): > 45 µM; Emax (NMDAR (1A/2B)): 4.66%; IC50 (COX2): > 45 µM; Emax (COX2): 26.5%
2 | CC[C@H](C)[C@H](NC(=O)[C@H](CC(C)C)NC(=O)[C@H](CC(=O)O)NC(=O)CNC(=O)[C@H](CCCNC(=N)N)NC(=O)[C@@H](NC(=O)[C@H](Cc1ccccc1)NC(=O)[C@H](Cc1ccc(O)cc1)NC(=O)[C@@H]1CCC(=O)NCC(=O)NCC(=O)N[C@@H](CCCNC(=N)N)C(=O)NCC(=O)N[C@@H](Cc2c[nH]cn2)C(=O)N[C@@H](C(C)C)C(=O)N2CCC[C@H]2C(=O)N1)C(C)C)C(=O)N[C@@H](CO)C(=O)N[C@@H](Cc1ccccc1)C(=O)N[C@@H](Cc1ccc(O)cc1)C(=O)N[C@@H](CCCCNC(=O)CCOCCOCCNC(=O)CCCc1ccc(I)cc1)C(=O)O [lassotide 47] (GGRGHVPEYFVRGDLISFYK([PEG2-Butanoyl(4-(4-I-phenyl))])-OH; lactam N-8) | 95.1% | 92.2% | 86.3% | 86.9% | > 45 µM | 0% | > 45 µM | 8.02% | > 45 µM | 1.93% | > 45 µM | 25.8% | > 45 µM | 0% | > 45 µM | 32.7% | > 45 µM | 1.85% | > 45 µM | 30.1% | IC50 (DRD2S): > 45 µM; Emax (DRD2S): 0%; IC50 (HRH2): > 45 µM; Emax (HRH2): 30%; IC50 (OPRM1): > 45 µM; Emax (OPRM1): 0%; IC50 (nAChR(a4/b2)): > 45 µM; Emax (nAChR(a4/b2)): 4.35%; Emax (NAV1.5): 0%; IC50 (NAV1.5): > 45 µM; EC50 (NMDAR (1A/2B)): > 45 µM; Emax (NMDAR (1A/2B)): 3.52%; IC50 (COX2): > 45 µM; Emax (COX2): 18.7%

Reference: publication doi:10.1101/2025.01.28.635346v1 (bioRxiv, 2025)
